In patent publication US12644087B2, “Methods to generate polymer scaffolds having a gradient of crosslinking density” (The University of North Carolina at Chapel Hill, priority 2016, dated 2026):

Tested on: primary human small intestinal epithelial cells
Experimental: Continuous monolayers of primary human small intestinal epithelial cells were generated on the crosslinked collagen hydrogel scaffold. […] (FIG. 3B) Fluorescence images of cells showing the EDU staining (white/light gray) and Hoechst 33342 (dark gray). The cell culture time was 10 days for A and B. (FIG. 3C) TEER vs. time (n=3 scaffolds).
To test this hypothesis, human small intestinal epithelial cells were plated on a hydrogel scaffold prepared in this manner, and the cell growth and TEER were monitored for up to 14 days (FIG. 3C). […] At day 10, the cells were stained with EDU (3-h pulse) to assess proliferating cells and Hoecsht nuclear stain to enable assessment of cell coverage across the scaffold (FIGS. 3A and 3B).

permeability of Lucifer yellow (apical to basal diffusion): 2.4±0.7 ×10^−8 cm·s^−1
Substance: Lucifer yellow
